Data: ChEMBL document CHEMBL3745643, “Recent Advances in the Discovery of Norovirus Therapeutics” (J Med Chem, 2015)
pEC50: −log10 of the molar value. Values belong to the compound of their own block, whether it stands above or below them. Peptide text beside a SMILES is read from it. * marks the point of attachment. Pyrrolidide = C1CCN(*)C1; Cbz = O=C(OCc1ccccc1)*

Key:
[1] = Inhibition of Norovirus RNA dependent RNA polymerase by spectrophotometry
[2] = system: Norovirus; experiment: Antiviral activity against Norovirus infected in HuH7 cells assessed as decrease in viral RNA level after 72 hrs by qRT-PCR analysis; format: functional, cell-based; settings: Huh-7, 72 h
[3] = system: Norovirus; experiment: Antiviral activity against Norovirus infected in HG23 cells assessed as decrease in viral RNA level by qRT-PCR analysis; format: functional, cell-based
[4] = Inhibition of recombinant His-tagged Norovirus 3C-like protease for 45 mins followed by addition of 30 uM EDANS-EPDFHLQGPEDLAK-Dabcyl substrate by FRET assay
[5] = Inhibition of Norovirus 3C-like protease by FRET assay

Structure (SMILES): Cc1ccc(C(=O)Nc2ccc(S(=O)(=O)O)c3cccc(S(=O)(=O)O)c23)cc1NC(=O)c1cccc(NC(=O)Nc2cccc(C(=O)Nc3cc(C(=O)Nc4ccc(S(=O)(=O)O)c5cccc(S(=O)(=O)O)c45)ccc3C)c2)c1
pEC50 [1]: 7.55

Structure (SMILES): CCOC(=O)/C=C/[C@H](C[C@@H]1CCNC1=O)NC(=O)[C@@H](CC(=O)[C@@H](NC(=O)c1cc(C)on1)C(C)C)Cc1ccc(F)cc1 [RUPINTRIVIR]
pEC50 [5]: 7.64

Structure (SMILES): Cc1ccc(C(=O)Nc2ccc(S(=O)(=O)O)c3cc(S(=O)(=O)O)cc(S(=O)(=O)O)c23)cc1NC(=O)c1cccc(NC(=O)Nc2cccc(C(=O)Nc3cc(C(=O)Nc4ccc(S(=O)(=O)O)c5cc(S(=O)(=O)O)cc(S(=O)(=O)O)c45)ccc3C)c2)c1 [SURAMIN HEXASODIUM]
pEC50 [1]: 7.57

Next, values leading:

pEC50 [2]: 4.52
Structure (SMILES): Cc1nc(-c2ccccc2)sc1C(=O)Nc1sc2c(c1C#N)CCC2

pEC50 [3]: 4.74
Structure (SMILES): C[C@@]1(O)[C@H](O)[C@@H](CO)O[C@H]1n1ccc(N)nc1=O

pEC50 [4]: 7.12
Structure (SMILES): CC(C)C[C@H](NC(=O)OCc1ccccc1)C(=O)N[C@@H](Cc1ccccc1)C(=O)N[C@H](C=O)CCC(=O)N1CCCC1 (Cbz-Leu-Phe-Glu(Pyrrolidide)-aldehyde)
